# From patent publication US5204338A, “Oxalylamino acid derivatives and their use as medicaments for inhibiting proline hydroxylase” (Hoechst Aktiengesellschaft, priority 1990, dated 1993)
# Where a name gives a salt, the structure may show the parent alone.
# Columns and labels:
# calvaria culture = assay: calvaria culture: reduction of the hydroxyproline/proline quotients in metabolic labeling with ^14 C-proline; format: cell-based; conditions: 50% reduction of the hydroxyproline/proline quotients in metabolic labeling with ^14 C-proline; esters
# Source text: The inhibitory activity can also be determined in cell or tissue culture. To do this, fibroblasts or other collagen-producing cells or calvaria or other collagen-producing organs can be employed. The inhibitory activity of substances according to the invention in calvaria culture is collated in Table 3. The concentration is indicated which leads to a 50% reduction of the hydroxyproline/proline quotients in metabolic labeling with ^14 C-proline (IC50).
# prolyl hydroxylase = prolyl hydroxylase (Homo sapiens, UniProt P13674); assay: enzyme test: hydroxylation of underhydroxylated collagen with prolyl hydroxylase in the presence of iron(II) ions, α-keto glutarate and ascorbate; format: biochemical; conditions: concentration which leads to an 80% inhibition of enzyme activity (the value is indicated as Ki); salts
# [1] = system: Clq biosynthesis of macrophages; conditions: W. Muller et al., FEBS Lett. 90, 218 (1978); cited from earlier work
# Sequence of prolyl hydroxylase (P13674 18-534): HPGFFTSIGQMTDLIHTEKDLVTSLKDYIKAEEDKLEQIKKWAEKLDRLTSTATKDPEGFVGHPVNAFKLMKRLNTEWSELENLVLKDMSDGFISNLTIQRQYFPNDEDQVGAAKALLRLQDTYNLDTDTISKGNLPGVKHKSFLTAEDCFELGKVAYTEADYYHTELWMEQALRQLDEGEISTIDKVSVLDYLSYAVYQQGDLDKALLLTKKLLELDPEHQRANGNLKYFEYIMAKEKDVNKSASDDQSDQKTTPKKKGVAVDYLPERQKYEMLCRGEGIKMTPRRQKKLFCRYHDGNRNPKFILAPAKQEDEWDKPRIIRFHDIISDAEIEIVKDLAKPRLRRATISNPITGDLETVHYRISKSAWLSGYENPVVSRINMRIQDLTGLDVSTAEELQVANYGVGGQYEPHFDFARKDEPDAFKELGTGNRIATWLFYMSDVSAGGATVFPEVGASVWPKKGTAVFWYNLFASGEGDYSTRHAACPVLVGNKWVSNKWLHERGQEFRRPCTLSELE
# Sequence of prolyl hydroxylase (P07237 18-508 partner): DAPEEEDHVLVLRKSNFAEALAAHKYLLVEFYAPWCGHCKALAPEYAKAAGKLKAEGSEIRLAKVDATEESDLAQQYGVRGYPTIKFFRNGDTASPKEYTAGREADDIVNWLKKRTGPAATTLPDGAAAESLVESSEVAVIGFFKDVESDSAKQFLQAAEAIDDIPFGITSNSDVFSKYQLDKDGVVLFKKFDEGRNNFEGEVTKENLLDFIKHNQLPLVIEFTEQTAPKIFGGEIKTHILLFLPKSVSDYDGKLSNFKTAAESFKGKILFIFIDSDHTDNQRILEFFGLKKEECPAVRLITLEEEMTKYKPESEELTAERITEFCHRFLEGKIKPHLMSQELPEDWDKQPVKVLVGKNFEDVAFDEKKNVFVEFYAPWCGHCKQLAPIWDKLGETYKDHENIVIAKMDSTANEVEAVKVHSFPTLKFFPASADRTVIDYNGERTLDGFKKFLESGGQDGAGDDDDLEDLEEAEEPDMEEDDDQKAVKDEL
SMILES,IC50 (calvaria culture) [µM],Ki (prolyl hydroxylase) [µM],other results
"COC(=O)C(=O)N[C@@H](C)C(=O)OC [Example 1, (N-Oxalyl)-L-alanine dimethyl ester]",350,,
C[C@H](NC(=O)C(=O)O)C(=O)O [dipotassium salt],,40,
"c1ccc(-c2ccccn2)nc1 [α, α-dipyridyl]",,,inhibition of Clq biosynthesis [1]: inhibition of Clq biosynthesis of macrophages
"COC(=O)CNC(=O)C(=O)OC [Example 3, (N-Oxalyl)-L-glycine dimethyl ester]",2,,
"O=C(O)CNC(=O)C(=O)O [Example 10, (N-Oxalyl)-L-glycine dipotassium salt]",,10,
